Source: patent publication US4061639A, “Quinolinesulfonyl compounds” (The Dow Chemical Company, priority 1976, dated 1977)

How the values were obtained:
Assay in all cases: agar dilution antimicrobial test (growth inhibition)
Format in all cases: cell-based
C. ips = conditions: read-out: Percent Growth Inhibition
Experimental: (§1) In representative activity tests, 8-quinolinesulfonyl bromide is dispersed in warm melted nutrient agar which is then poured into petri dishes and allowed to solidify, the quinoline compound being employed in an amount sufficient to provide from 10 to 500 parts by weight thereof per million parts (ppm) of the ultimate agar composition. The surface of the agar is then inoculated with a variety of bacterial and fungal pest organisms, and the inoculated plates are incubated under conditions conducive to bacterial and fungal growth. Similar check plates in which the agar contains no active quinoline or other toxic compound are similarly inoculated and incubated.
(§2) In such operations, 8-quinolinesulfonyl bromide gave 100% growth inhibition (kills) and control of the following organisms at the indicated concentrations in parts per million:
(§3) In comparative operations, 8-quinolinesulfonyl chloride was tested for antimicrobial activity at 500 ppm using identical agar dilution tests. The following table indicates the percent growth inhibition of the following organisms: […]

B. subtilis = conditions: Bacillus subtilis, read-out: Percent Growth Inhibition
Experimental: as §1, §2, §3

A. aerogenes = conditions: Klebsiella aerogenes, read-out: Percent Growth Inhibition
Experimental: as §1, §2, §3

[1] = tested on: Trichoderm Sp. Madison P-42; conditions: read-out: Percent Growth Inhibition
Experimental: as §1, §2, §3

C. pelliculosa = conditions: Hansenula anomala, read-out: Percent Growth Inhibition
Experimental: as §1, §2, §3

P. Str-10 = conditions: read-out: Percent Growth Inhibition
Experimental: as §1, §2, §3

S. aureus = conditions: Staphylococcus aureus, read-out: Percent Growth Inhibition
Experimental: as §1, §2, §3

P. pullulans = conditions: read-out: Percent Growth Inhibition
Experimental: as §1, §2, §3

M. phlei = conditions: Mycolicibacterium phlei, read-out: Percent Growth Inhibition
Experimental: as §1, §2, §3

R. nigricans = conditions: Rhizopus stolonifer, read-out: Percent Growth Inhibition
Experimental: as §1, §2, §3

S. typhosa = conditions: read-out: Percent Growth Inhibition
Experimental: as §1, §2, §3

C. albicans = conditions: Candida albicans, read-out: Percent Growth Inhibition
Experimental: as §1, §2, §3

E. coli = conditions: Escherichia coli, read-out: Percent Growth Inhibition
Experimental: as §1, §2, §3

For O=S(=O)(Cl)c1cccc2cccnc12 [8-Quinolinesulfonyl Chloride, 8-quinolinesulfonyl chloride], the inhibition at 500 ppm (C. ips) was 0%, the inhibition at 500 ppm (B. subtilis) was 0% and the inhibition at 500 ppm (A. aerogenes) was 0%. For the same compound, the inhibition at 500 ppm [1] was 0%, the inhibition at 500 ppm (C. pelliculosa) was 0% and the inhibition at 500 ppm (P. Str-10) was 0%. The inhibition at 500 ppm (S. aureus) was 0%, the inhibition at 500 ppm (P. pullulans) was 0% and the inhibition at 500 ppm (M. phlei) was 50%. For the same compound, the inhibition at 500 ppm (R. nigricans) was 0%, the inhibition at 500 ppm (S. typhosa) was 0% and the inhibition at 500 ppm (C. albicans) was 0%. For the same compound, the inhibition at 500 ppm (E. coli) was 0%.
